Like-named read-outs stand apart in the source and are kept apart here.
What was measured:
DD2 = tested on: DD2; parameters: method as in downloaded from ChEMBL; conditions: ref downloaded from ChEMBL; cited from earlier work
3D7 PFLDH = tested on: 3D7 PFLDH; parameters: method as in downloaded from ChEMBL; conditions: ref downloaded from ChEMBL; cited from earlier work
[1] = biological target: T1, Plasmodium falciparum calcium-dependent protein kinase 1 (CDPK1) (Plasmodium falciparum, UniProt P62344); assay: CDPK1 Kinase-Glo ATP-consumption screen and dose-response; assay type: biochemical
T1 construct: 6-Histidine (N); made in house
How it was run: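 Single-point testing used 1 μM final compound, then dose-response, against CDPK4 and CDPK1 with Syntide-2 (40 μM) as substrate. After 90 min, reactions were halted by 5 mM EGTA, and kinase activity was inferred from depleted ATP via Kinase-Glo luminescence.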

P. falciparum 3D7 cells = conditions: 3D7; ref downloaded from ChEMBL; cited from earlier work
HepG2 cells = conditions: HEPG2; ref downloaded from ChEMBL; cited from earlier work
[2] = hits below 1 uM, read-out: CDPK1 IC50

T1 sequence (P62344 whole entry): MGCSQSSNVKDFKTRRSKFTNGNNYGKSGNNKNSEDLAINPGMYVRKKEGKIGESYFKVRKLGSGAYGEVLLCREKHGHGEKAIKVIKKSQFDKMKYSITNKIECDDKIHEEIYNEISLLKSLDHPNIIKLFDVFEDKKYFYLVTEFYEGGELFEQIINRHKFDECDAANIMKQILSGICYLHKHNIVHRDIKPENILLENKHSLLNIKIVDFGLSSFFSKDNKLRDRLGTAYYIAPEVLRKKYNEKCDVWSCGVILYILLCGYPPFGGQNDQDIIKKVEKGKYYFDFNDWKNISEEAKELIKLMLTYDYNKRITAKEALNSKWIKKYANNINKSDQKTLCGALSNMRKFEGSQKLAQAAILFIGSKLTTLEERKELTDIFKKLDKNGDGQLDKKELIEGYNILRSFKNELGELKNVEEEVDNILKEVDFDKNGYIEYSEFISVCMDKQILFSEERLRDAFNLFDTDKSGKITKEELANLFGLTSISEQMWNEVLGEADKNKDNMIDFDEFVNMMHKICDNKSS

COc1cc2nccc(Nc3ccc(Oc4ccccc4)cc3)c2cc1OC.Cl [TCMDC-131917]
PCT_INHB_DD2 (DD2): 99 | PCT_INHIB_3D7_PFLDH (3D7 PFLDH): 0 | IC50 [1, 2]: 145 nM | PCT_IHB_3D7 (P. falciparum 3D7 cells): 100 | pXC50_3D7 (P. falciparum 3D7 cells): 6.165 | PCT_INHIB_HEPG2 (HepG2 cells): 13

COc1ccc(-c2cnc3ccc(N4CCCC4)nn23)cc1OC.O=CO [TCMDC-134177]
PCT_INHB_DD2 (DD2): 98 | PCT_INHIB_3D7_PFLDH (3D7 PFLDH): 0 | IC50 [1, 2]: 310 nM | PCT_IHB_3D7 (P. falciparum 3D7 cells): 98 | pXC50_3D7 (P. falciparum 3D7 cells): 6.113 | PCT_INHIB_HEPG2 (HepG2 cells): 40

COc1ccc(-c2cnn3ccc(Nc4cc(OC)c(OC)c(OC)c4)nc23)cc1OC [TCMDC-134383]
PCT_INHB_DD2 (DD2): 100 | PCT_INHIB_3D7_PFLDH (3D7 PFLDH): 0 | IC50 [1, 2]: 157 nM | PCT_IHB_3D7 (P. falciparum 3D7 cells): 98 | pXC50_3D7 (P. falciparum 3D7 cells): 6.187 | PCT_INHIB_HEPG2 (HepG2 cells): 57

COc1ccc(Nc2ncc3c(-c4cccc(NC(=O)Cc5cccc(O)c5)c4)c[nH]c3n2)cc1OC [TCMDC-135247]
PCT_INHB_DD2 (DD2): 96 | PCT_INHIB_3D7_PFLDH (3D7 PFLDH): 0 | IC50 [1, 2]: 312 nM | PCT_IHB_3D7 (P. falciparum 3D7 cells): 100 | pXC50_3D7 (P. falciparum 3D7 cells): 6.156 | PCT_INHIB_HEPG2 (HepG2 cells): 44

COc1ccc(-c2cnc3[nH]cc(-c4ccncc4)c3c2)cc1OC [TCMDC-135853]
PCT_INHB_DD2 (DD2): 97 | PCT_INHIB_3D7_PFLDH (3D7 PFLDH): 0 | IC50 [1, 2]: 390 nM | PCT_IHB_3D7 (P. falciparum 3D7 cells): 98 | pXC50_3D7 (P. falciparum 3D7 cells): 6.899 | PCT_INHIB_HEPG2 (HepG2 cells): 52

CS(=O)(=O)Nc1cccc(-c2cnc3[nH]cc(-c4ccc(CN)cc4)c3c2)c1 [TCMDC-136218]
PCT_INHB_DD2 (DD2): 95 | PCT_INHIB_3D7_PFLDH (3D7 PFLDH): 2 | IC50 [1, 2]: 552 nM | PCT_IHB_3D7 (P. falciparum 3D7 cells): 98 | pXC50_3D7 (P. falciparum 3D7 cells): 6.0063 | PCT_INHIB_HEPG2 (HepG2 cells): 27

CS(=O)(=O)Nc1cccc(-c2cnc3[nH]cc(-c4cccc(CN)c4)c3c2)c1 [TCMDC-136219]
PCT_INHB_DD2 (DD2): 82 | PCT_INHIB_3D7_PFLDH (3D7 PFLDH): 0 | IC50 [1, 2]: 387 nM | PCT_IHB_3D7 (P. falciparum 3D7 cells): 96 | pXC50_3D7 (P. falciparum 3D7 cells): 5.779 | PCT_INHIB_HEPG2 (HepG2 cells): 25

CS(=O)(=O)c1cccc(-c2cnc3[nH]cc(-c4cccc(CCN)c4)c3c2)c1.O=C(O)C(F)(F)F [TCMDC-136307]
PCT_INHB_DD2 (DD2): 74 | PCT_INHIB_3D7_PFLDH (3D7 PFLDH): 0 | IC50 [1, 2]: 44 nM | PCT_IHB_3D7 (P. falciparum 3D7 cells): 99 | pXC50_3D7 (P. falciparum 3D7 cells): 5.808 | PCT_INHIB_HEPG2 (HepG2 cells): 0

Oc1cccc(-c2cnc3ccc(NCc4ccc(F)cc4)nn23)c1 [TCMDC-136676]
PCT_INHB_DD2 (DD2): 66 | PCT_INHIB_3D7_PFLDH (3D7 PFLDH): 2 | IC50 [1, 2]: 115 nM | PCT_IHB_3D7 (P. falciparum 3D7 cells): 91 | pXC50_3D7 (P. falciparum 3D7 cells): 5.965 | PCT_INHIB_HEPG2 (HepG2 cells): 0

N#Cc1ccc(-c2cnc3ccc(NCCc4cccnc4)nn23)cc1 [TCMDC-136679]
PCT_INHB_DD2 (DD2): 81 | PCT_INHIB_3D7_PFLDH (3D7 PFLDH): 6 | IC50 [1, 2]: 246 nM | PCT_IHB_3D7 (P. falciparum 3D7 cells): 99 | pXC50_3D7 (P. falciparum 3D7 cells): 6.593 | PCT_INHIB_HEPG2 (HepG2 cells): 27

Clc1ccc(-c2cnc3ccc(NCCc4cccnc4)nn23)cc1 [TCMDC-136680]
PCT_INHB_DD2 (DD2): 32 | PCT_INHIB_3D7_PFLDH (3D7 PFLDH): 0 | IC50 [1, 2]: 371 nM | PCT_IHB_3D7 (P. falciparum 3D7 cells): 97 | pXC50_3D7 (P. falciparum 3D7 cells): 6.067 | PCT_INHIB_HEPG2 (HepG2 cells): 34

COc1ccc(-c2cnc3ccc(NCCCO)nn23)cc1OC [TCMDC-136683]
PCT_INHB_DD2 (DD2): 90 | PCT_INHIB_3D7_PFLDH (3D7 PFLDH): 0 | IC50 [1]: 361 nM | PCT_IHB_3D7 (P. falciparum 3D7 cells): 98 | pXC50_3D7 (P. falciparum 3D7 cells): 6.172 | PCT_INHIB_HEPG2 (HepG2 cells): 9

COc1ccc(-c2cnc3ccc(NC4CCC(O)CC4)nn23)cn1 (stereo not shown) [TCMDC-136694]
PCT_INHB_DD2 (DD2): 73 | PCT_INHIB_3D7_PFLDH (3D7 PFLDH): 4 | IC50 [1, 2]: 379 nM | PCT_IHB_3D7 (P. falciparum 3D7 cells): 98 | pXC50_3D7 (P. falciparum 3D7 cells): 6.146 | PCT_INHIB_HEPG2 (HepG2 cells): 54

Cl.Oc1cccc(Nc2ccnc3cc(-c4ccncc4)ccc23)c1 [TCMDC-138292]
PCT_INHB_DD2 (DD2): 99 | PCT_INHIB_3D7_PFLDH (3D7 PFLDH): 1 | IC50 [1, 2]: 884 nM | PCT_IHB_3D7 (P. falciparum 3D7 cells): 100 | pXC50_3D7 (P. falciparum 3D7 cells): 5.98 | PCT_INHIB_HEPG2 (HepG2 cells): 8

Cl.Oc1cccc(Nc2ccnc3cc(-c4nccs4)ccc23)c1 [TCMDC-138297]
PCT_INHIB_3D7_PFLDH (3D7 PFLDH): 0 | IC50 [1, 2]: 997 nM | PCT_IHB_3D7 (P. falciparum 3D7 cells): 98 | PCT_INHIB_HEPG2 (HepG2 cells): 0

Cc1nc(-c2cccc(Nc3ccnc4cc(-c5nccs5)ccc34)c2)no1.Cl [TCMDC-138334]
PCT_INHB_DD2 (DD2): 90 | PCT_INHIB_3D7_PFLDH (3D7 PFLDH): 0 | IC50 [1, 2]: 191 nM | PCT_IHB_3D7 (P. falciparum 3D7 cells): 99 | pXC50_3D7 (P. falciparum 3D7 cells): 6.492 | PCT_INHIB_HEPG2 (HepG2 cells): 37

Cc1nnc(-c2cccc(Nc3ccnc4cc(-c5nccs5)ccc34)c2)o1.Cl [TCMDC-138335]
PCT_INHB_DD2 (DD2): 89 | PCT_INHIB_3D7_PFLDH (3D7 PFLDH): 0 | IC50 [1, 2]: 186 nM | PCT_IHB_3D7 (P. falciparum 3D7 cells): 95 | pXC50_3D7 (P. falciparum 3D7 cells): 6.199 | PCT_INHIB_HEPG2 (HepG2 cells): 38

Oc1cc(Nc2ccnc3cc(I)ccc23)c(F)cc1Cl [TCMDC-138386]
PCT_INHB_DD2 (DD2): 77 | PCT_INHIB_3D7_PFLDH (3D7 PFLDH): 0 | IC50 [1, 2]: 282 nM | PCT_IHB_3D7 (P. falciparum 3D7 cells): 92 | pXC50_3D7 (P. falciparum 3D7 cells): 6.08 | PCT_INHIB_HEPG2 (HepG2 cells): 0

CN(C)CCN(C)Cc1ccc(-c2ccc3c(Nc4ccc(Cl)cc4F)ccnc3c2)o1 [TCMDC-138388]
PCT_INHB_DD2 (DD2): 76 | PCT_INHIB_3D7_PFLDH (3D7 PFLDH): 1 | IC50 [1, 2]: 604 nM | PCT_IHB_3D7 (P. falciparum 3D7 cells): 100 | pXC50_3D7 (P. falciparum 3D7 cells): 6.444 | PCT_INHIB_HEPG2 (HepG2 cells): 20

CN(C)Cc1ccc(-c2ccc3c(Nc4ccc(Cl)cc4F)ccnc3c2)o1 [TCMDC-138389]
PCT_INHB_DD2 (DD2): 99 | PCT_INHIB_3D7_PFLDH (3D7 PFLDH): 0 | IC50 [1, 2]: 185 nM | PCT_IHB_3D7 (P. falciparum 3D7 cells): 100 | pXC50_3D7 (P. falciparum 3D7 cells): 6.6173 | PCT_INHIB_HEPG2 (HepG2 cells): 13

CN(C)CCNCc1ccc(-c2ccc3c(Nc4ccc(Cl)cc4F)ccnc3c2)o1 [TCMDC-138391]
PCT_INHB_DD2 (DD2): 100 | PCT_INHIB_3D7_PFLDH (3D7 PFLDH): 0 | IC50 [1, 2]: 374 nM | PCT_IHB_3D7 (P. falciparum 3D7 cells): 99 | pXC50_3D7 (P. falciparum 3D7 cells): 6.681 | PCT_INHIB_HEPG2 (HepG2 cells): 14

CN1CCN(Cc2ccc(-c3ccc4c(Nc5ccc(Cl)cc5F)ccnc4c3)o2)CC1 [TCMDC-138395]
PCT_INHB_DD2 (DD2): 100 | PCT_INHIB_3D7_PFLDH (3D7 PFLDH): 0 | IC50 [1, 2]: 406 nM | PCT_IHB_3D7 (P. falciparum 3D7 cells): 100 | pXC50_3D7 (P. falciparum 3D7 cells): 6.811 | PCT_INHIB_HEPG2 (HepG2 cells): 47

Fc1cc(Cl)ccc1Nc1ccnc2cc(-c3ccc(CNCCN4CCOCC4)o3)ccc12 [TCMDC-138397]
PCT_INHB_DD2 (DD2): 100 | PCT_INHIB_3D7_PFLDH (3D7 PFLDH): 0 | IC50 [1, 2]: 383 nM | PCT_IHB_3D7 (P. falciparum 3D7 cells): 100 | pXC50_3D7 (P. falciparum 3D7 cells): 6.5582 | PCT_INHIB_HEPG2 (HepG2 cells): 13

c1ccc(Oc2ccc(Nc3ccnc4cc(-c5ccc(CNCCN6CCOCC6)o5)ccc34)cc2)cc1 [TCMDC-138398]
PCT_INHB_DD2 (DD2): 99 | PCT_INHIB_3D7_PFLDH (3D7 PFLDH): 0 | IC50 [1, 2]: 435 nM | PCT_IHB_3D7 (P. falciparum 3D7 cells): 99 | pXC50_3D7 (P. falciparum 3D7 cells): 6.358 | PCT_INHIB_HEPG2 (HepG2 cells): 20

CN(C)CCNCc1ccc(-c2ccc3c(Nc4ccc(Oc5ccccc5)cc4)ccnc3c2)o1 [TCMDC-138399]
PCT_INHB_DD2 (DD2): 99 | PCT_INHIB_3D7_PFLDH (3D7 PFLDH): 2 | IC50 [1, 2]: 681 nM | PCT_IHB_3D7 (P. falciparum 3D7 cells): 100 | pXC50_3D7 (P. falciparum 3D7 cells): 6.553 | PCT_INHIB_HEPG2 (HepG2 cells): 19

CN(C)CCN(C)Cc1ccc(-c2ccc3c(Nc4ccc(Oc5ccccc5)cc4)ccnc3c2)o1 [TCMDC-138400]
PCT_INHB_DD2 (DD2): 100 | PCT_INHIB_3D7_PFLDH (3D7 PFLDH): 0 | IC50 [1, 2]: 718 nM | PCT_IHB_3D7 (P. falciparum 3D7 cells): 100 | pXC50_3D7 (P. falciparum 3D7 cells): 6.746 | PCT_INHIB_HEPG2 (HepG2 cells): 5

CN(C)CCN(C)Cc1nc(-c2ccc3c(Nc4ccc(Oc5ccccc5)cc4)ccnc3c2)cs1 [TCMDC-138408]
PCT_INHB_DD2 (DD2): 100 | PCT_INHIB_3D7_PFLDH (3D7 PFLDH): 0 | IC50 [1, 2]: 915 nM | PCT_IHB_3D7 (P. falciparum 3D7 cells): 100 | pXC50_3D7 (P. falciparum 3D7 cells): 6.673 | PCT_INHIB_HEPG2 (HepG2 cells): 27

Reference: publication PMC4774911, “Biochemical Screening of Five Protein Kinases from Plasmodium falciparum against 14,000 Cell-Active Compounds” (PLoS ONE, 2016)
